Assay results as given in patent US20240124528A1, “ANTAGONIST OF INTERLEUKIN-17B RECEPTOR (IL-17RB) AND USE THEREOF” (Academia Sinica, priority 2020, published 2024).

Tests used:
CFPAC1-GFP/Luc cells = test: Orthotopic CFPAC1-GFP/Luc xenograft pancreatic cancer model in NOD-SCID mice; assay type: in vivo, mouse
[1] = target: T1, interaction between IL-17RB and MLK4 (Homo sapiens, UniProt Q5TCX8); test: Co-immunoprecipitation of IL-17RB and MLK4 after peptide pretreatment and rIL-17B; assay type: cell-based; conditions: 293T cells expressing Flag-MLK4 and HA-IL-17RB; peptides 0, 0.1, 1, 10, 50, 100 ng/ml for 30 mins, then rIL-17B 30 mins
T1 construct: host or cells: 293T (HEK293T)
From the text: (§1) FIGS. 7A to 7J include charts showing that disruption of the interaction between IL-17RB and MLK4 by the loop peptide blocks oncogenic progression. (FIG. 7A) Peptides TAT48-57 (Control) (SEQ ID NO: 21) and TAT-IL-17RB403-416 (Loop) (SEQ ID NO: 30) used for the following experiments. (FIG. 7B) Immunoblotting analysis of IL-17RB binding to MLK4 with Loop peptide treatment. 293T cells expressing Flag-MLK4 and HA-IL-17RB were pretreated with the control and loop peptides with different dose (0, 0.1, 1, 10, 50, 100 ng/ml) for 30 mins, and then added rIL-17B for 30 mins. The cell lysates were reciprocally co-immunoprecipitated with anti-Flag and anti-HA and blotted with the indicated antibodies or directly immunoblotted with the indicated antibodies as the input controls. […] CCL20 and TFF/mRNA expression of these cells were measured by RT-qPCR (n=3) (FIG. 7D), the same cells were for invasion assay (n=4) (FIG. 7E) and SACF assay (n=4) (FIG. 7F). […] (FIG. 7I) The experimental EKP mice (n=7 for each group) were euthanized at Day 56, and the metastatic tumor nodules in the lungs were counted. […]
Whole-cell lysates were prepared as previously described (6, 7). […] After extensive washing with diluted lysis buffer (0.01% Triton X-100), IL-17RB and its associated proteins were analyzed by immunoblotting analysis. […]

[2] = tested on: pancreatic cancer cells expressing IL-17RB; test: Soft agar colony formation (SACF) assay after peptide treatment; assay type: cell-based, human; conditions: CFPAC1 and PDX-derived cells treated with peptide
From the text: as §1, with “mins.” for “mins. The cell lysates were reciprocally co-immunoprecipitated with anti-Flag and anti-HA and blotted with the indicated antibodies or directly immunoblotted with the indicated antibodies as the input controls.”
FIGS. 19A to 19D include charts showing that treatment with the loop peptide suppresses aggressive behavior of patient-derived pancreatic tumor cells. […] (FIG. 19C and FIG. 19D) These cells were measured by RT-qPCR for the cytokine gene mRNA expression (n=3), or for Invasion assay (n=4) (FIG. 19C) and SACF assay (n=4) (FIG. 19D). […]
Soft agar colony formation assay was performed as described (7). […] Crystal violet-stained colonies greater than 50 μm in size were counted and analyzed objectively by light microscopy.

[3] = NOD-SCID mice, peptide 160 μg/100 μl PBS i.p. twice per week

T1 sequence (Q5TCX8 whole entry): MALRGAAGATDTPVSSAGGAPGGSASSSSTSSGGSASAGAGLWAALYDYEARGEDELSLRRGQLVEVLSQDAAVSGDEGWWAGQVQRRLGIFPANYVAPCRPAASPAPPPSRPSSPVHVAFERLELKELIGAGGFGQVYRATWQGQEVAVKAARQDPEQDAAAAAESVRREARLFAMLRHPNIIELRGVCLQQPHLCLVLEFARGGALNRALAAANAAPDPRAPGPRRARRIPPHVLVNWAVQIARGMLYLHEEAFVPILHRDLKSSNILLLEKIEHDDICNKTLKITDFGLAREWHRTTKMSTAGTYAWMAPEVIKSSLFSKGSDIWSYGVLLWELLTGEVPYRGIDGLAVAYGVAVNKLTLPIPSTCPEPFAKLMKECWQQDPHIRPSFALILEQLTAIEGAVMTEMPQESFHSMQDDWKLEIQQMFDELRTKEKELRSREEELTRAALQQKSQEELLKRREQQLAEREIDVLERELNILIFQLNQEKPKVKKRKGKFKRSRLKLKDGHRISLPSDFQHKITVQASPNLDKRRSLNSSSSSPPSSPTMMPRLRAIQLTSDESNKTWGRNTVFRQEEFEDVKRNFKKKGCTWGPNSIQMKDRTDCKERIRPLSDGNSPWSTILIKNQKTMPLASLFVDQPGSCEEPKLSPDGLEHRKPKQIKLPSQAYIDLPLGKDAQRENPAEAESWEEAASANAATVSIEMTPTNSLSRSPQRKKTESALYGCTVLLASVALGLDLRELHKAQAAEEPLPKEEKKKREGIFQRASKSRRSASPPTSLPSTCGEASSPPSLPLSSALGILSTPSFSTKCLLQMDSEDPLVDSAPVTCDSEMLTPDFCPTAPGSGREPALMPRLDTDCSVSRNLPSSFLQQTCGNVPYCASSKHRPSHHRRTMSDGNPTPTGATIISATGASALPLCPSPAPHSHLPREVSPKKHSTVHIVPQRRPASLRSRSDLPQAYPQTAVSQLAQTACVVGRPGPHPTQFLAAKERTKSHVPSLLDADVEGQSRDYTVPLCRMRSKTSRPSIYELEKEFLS

Sequence: RKKRRQRRRVCDGTCGKSEGSPS (IL-17RB inhibitory peptide, fusion protein) [loop peptide]
- distant metastases of the pancreatic tumors to liver and lung (IVIS) (CFPAC1-GFP/Luc cells; NOD-SCID mice euthanized at Day 34): significantly suppressed
- expression of phospho-IL-17RB in the pancreatic tumors (IHC) (CFPAC1-GFP/Luc cells; [3]): inhibited
- lifespan (Kaplan-Meier survival analysis) (CFPAC1-GFP/Luc cells; [3]): prolonged
- tumor growth (IVIS bioluminescence) (CFPAC1-GFP/Luc cells; [3]): significantly impeded
- pancreatic tumor progression (CFPAC1-GFP/Luc cells; orthotopic xenograft, NOD-SCID mice): suppresses
- interaction between IL-17RB and MLK4 (co-IP) [1]: disrupted
- colony formation ability (SACF) [2]: diminished
